Laboratory results as given in patent publication EP0745599A2, “1-(3-Heterocyclylphenyl)-s-triazine-2,4,6-oxo or thiotrione herbicidal agents” (American Cyanamid Company, priority 1995, dated 1996).

Experiments:
Format in all cases: in vivo
Conditions in all cases: rated four to five weeks after treatment
CHENOPODIUM ALBUM, L. = experiment: Preemergence herbicidal evaluation, CHEAL (Lambsquarters, Common)
From the text: (§1) Results of herbicide evaluation are expressed on a rating scale (0-9). The scale is based upon a visual observation of plant stand, vigor, malformation, size, chlorosis and overall plant appearance as compared with a control.
(§2) The preemergence herbicidal activity of the test compounds of the present invention is exemplified by the following tests in which the seeds of a variety of monocotyledonous and dicotyledonous plants are separately mixed with potting soil and planted on top of approximately one inch of soil in separate pint cups. After planting, the cups are sprayed with the selected aqueous acetone solution containing test compound in sufficient quantity to provide the equivalent of about 0.125 to 0.50 kg per hectare of test compound per cup. The treated cups are then placed on greenhouse benches, watered and cared for in accordance with conventional greenhouse procedures. From four to five weeks after treatment, the tests are terminated and each cup is examined and rated according to the rating system provided in Example 42.

[1] = system: ABUTILON THEOPHRASTI, MEDIC.; experiment: Postemergence herbicidal evaluation, ABUTH (Velvetleaf)
Description: In the tests, seedling plants are grown in jiffy flats for about two weeks. The test compounds are dispersed in 50/50 acetone/water mixtures containing 0.5% TWEEN®20, a polyoxyethylene sorbitan monolaurate surfactant of Atlas Chemical Industries, in sufficient quantities to provide the equivalent of about 0.125 kg to 0.500 kg per hectare of active compound when applied to the plants through a spray nozzle operating at 40 psi for a predetermined time. After spraying, the plants are placed on greenhouse benches and are cared for in the usual manner, commensurate with conventional greenhouse practices. From four to five weeks after treatment, the seedling plants are examined and rated according to the rating system set forth below. Where more than one test is involved for a given compound, the data are averaged.
as §1

ZEA MAYS L. = experiment: Preemergence herbicidal evaluation, ZEAMX (Corn, Field)
From the text: as §1, §2

GALIUM APARINE = experiment: Preemergence herbicidal evaluation, GALAP (Galium)
From the text: as §1, §2

[2] = system: GLYCINE MAX(L)MERR. CV. WILLIAMS; experiment: Preemergence herbicidal evaluation, GLXMAW (Soybean, Williams)
From the text: as §1, §2

[3] = system: TRITICUM AESTIVUM, CV. APOLLO; experiment: Preemergence herbicidal evaluation, TRZAWO (Wheat, Winter, CV. APOLLO)
From the text: as §1, §2

[4] = system: ORYZA SATIVA, L. TEBONNET; experiment: Preemergence herbicidal evaluation, ORYSAT (Rice, Tebonnet)
From the text: as §1, §2

IPOMOEA SPP. = experiment: Preemergence herbicidal evaluation, IPOSS (Morningglory Spp.)
From the text: as §1, §2

[5] = system: ECHINOCHLOA CRUS-GALLI, (L) BEAU; experiment: Preemergence herbicidal evaluation, ECHCG (Barnyardgrass)
From the text: as §1, §2

[6] = system: SETARIA VIRIDIS, (L) BEAU; experiment: Preemergence herbicidal evaluation, SETVI (Foxtail, Green)
From the text: as §1, §2

Compound	Herbicide rating (0-9) CHEAL (CHENOPODIUM ALBUM, L.; 0.125 kg/ha)	Herbicide rating (0-9) CHEAL (CHENOPODIUM ALBUM, L.; 0.250 kg/ha)	Herbicide rating (0-9) CHEAL (CHENOPODIUM ALBUM, L.; 0.500 kg/ha)	Herbicide rating (0-9) ABUTH ([1]; 0.125 kg/ha)	Herbicide rating (0-9) ABUTH ([1]; 0.250 kg/ha)	Herbicide rating (0-9) ABUTH ([1]; 0.500 kg/ha)	Herbicide rating (0-9) GLXMAW ([2]; 0.125 kg/ha)	Herbicide rating (0-9) GLXMAW ([2]; 0.250 kg/ha)	Herbicide rating (0-9) GLXMAW ([2]; 0.500 kg/ha)	Herbicide rating (0-9) TRZAWO ([3]; 0.125 kg/ha)	Herbicide rating (0-9) TRZAWO ([3]; 0.250 kg/ha)	Herbicide rating (0-9) TRZAWO ([3]; 0.500 kg/ha)	other results
COC(=O)Cn1c(=O)n(C)c(=O)n(-c2cc(N3C(=O)C4=C(CCCC4)C3=O)c(F)cc2Cl)c1=O [Compound 1, Methyl 3-[2-Chloro-5-(1-cyclohexene-1,2-dicarboximido)-4-fluorophenyl]tetrahydro-5-methyl-2,4,6-trioxo-s-triazine-1(2H)-acetate]	9.0	9.0	9.0	9.0	9.0	9.0	0.0	0.0	0.0	0.0	0.0	0.0	Herbicide rating (0-9) ZEAMX (ZEA MAYS L.; 0.125 kg/ha): 0.0; Herbicide rating (0-9) ZEAMX (ZEA MAYS L.; 0.250 kg/ha): 0.0; Herbicide rating (0-9) ZEAMX (ZEA MAYS L.; 0.500 kg/ha): 0.0; Herbicide rating (0-9) GALAP (GALIUM APARINE; 0.250 kg/ha): 0.0; Herbicide rating (0-9) GALAP (GALIUM APARINE; 0.500 kg/ha): 0.0; Herbicide rating (0-9) ORYSAT ([4]; 0.125 kg/ha): 0.0; Herbicide rating (0-9) ORYSAT ([4]; 0.250 kg/ha): 0.0; Herbicide rating (0-9) ORYSAT ([4]; 0.500 kg/ha): 0.0
Cn1c(=O)n(CC(=O)OC(C)(C)C)c(=O)n(-c2cc(N3C(=O)C4=C(CCCC4)C3=O)c(F)cc2Cl)c1=O [Compound 2, Tert-butyl 3-[2-chloro-5-(1-cyclohexene-1,2-dicarboximido)-4-fluorophenyl]tetrahydro-5-methyl-2,4,6-trioxo-s-triazine-1(2H)-acetate]	9.0	9.0	9.0	9.0	9.0	9.0	0.0	0.0	0.0	1.0	1.0	1.0	Herbicide rating (0-9) IPOSS (IPOMOEA SPP.; 0.125 kg/ha): 6.0; Herbicide rating (0-9) IPOSS (IPOMOEA SPP.; 0.250 kg/ha): 6.0; Herbicide rating (0-9) IPOSS (IPOMOEA SPP.; 0.500 kg/ha): 6.0; Herbicide rating (0-9) ECHCG ([5]; 0.125 kg/ha): 0.0; Herbicide rating (0-9) ECHCG ([5]; 0.250 kg/ha): 0.0; Herbicide rating (0-9) ECHCG ([5]; 0.500 kg/ha): 0.0; Herbicide rating (0-9) SETVI ([6]; 0.125 kg/ha): 0.0; Herbicide rating (0-9) SETVI ([6]; 0.250 kg/ha): 0.0; Herbicide rating (0-9) SETVI ([6]; 0.500 kg/ha): 0.0
